Measured values: patent US20260183274A1, “PDK1 REGULATORY COMPOUND AND COMPOSITION CONTAINING THE SAME” (PROVIBIO CO., LTD., priority 2024, published 2026)

Tests used:
[1] = tested on: HCT-116 colon cancer cell lines; test: Matrigel Invasion Assay, HCT-116; format: cell-based, human; details: 24 hours treatment, FIG. 30
Procedure: To evaluate the metastasis inhibitory efficacy of the compounds of the present invention on HCT-116 colon cancer cell lines, an Invasion Assay using Matrigel was performed to assess the cells' invasion ability.
First, Matrigel was thawed on ice in RPMI-1640 medium without FBS, then diluted with DMEM at a ratio of 1:20.
The diluted Matrigel mixture was applied to the upper chamber at 100 μl per well, and 750 μl of RPMI-1640 without FBS was added to the lower chamber.
The plates were then incubated at 37° C. for 1 hour to allow the Matrigel to solidify.
After coating, the Matrigel mixture in the upper chamber was removed using a pipette, and the chamber was washed with RPMI without FBS.
Human-derived colorectal cancer cell line HCT-116, obtained from the Korean Cell Bank, was cultured in RPMI-1640 medium containing 10% FBS.
Following stabilization, the cells were harvested using Trypsin-EDTA treatment, centrifuged at 1,200 rpm for 3 minutes, the supernatant was removed, and the cells were resuspended in the same medium, the medium in the lower chamber was replaced with 750 μl of RPMI-1640 supplemented with 10% FBS, and the cells were seeded into the upper chamber at a density of 5×10^4 cells/well.
The cells were cultured for 24 hours after attachment, and then the compounds according to the present invention (G078, G085, G086, G088, G089, PBK-2024-010, PBK-2025-010, PBK-2025-013, PBK-2025-016) and the control substance DMSO were diluted and added to the upper chamber after removing the medium.
Additionally, the medium in the lower chamber was replaced with fresh RPMI-1640 containing FBS, and the culture was continued.
After an additional 24 hours, the medium was removed, and 1 ml of methanol was added for 10 minutes to fix the cells.
Subsequently, 1 ml of Hematoxylin was added and reacted for 5 minutes, followed by 1 ml of Eosin, which was reacted for 30 seconds. The sample was then washed with distilled water (DW).
After staining was complete, any remaining cells in the upper chamber were removed. Finally, the infiltrated cells were observed under a microscope, photographed, and the degree of infiltration was analyzed.

[2] = tested on: T cells isolated from mouse spleens; test: T cell proliferation inhibition (CFSE flow cytometry, anti-CD3/anti-CD28 stimulation); format: cell-based; details: mouse spleen T cells, 3 days; for inhibition at 0.01 µM / inhibition at 0.1 µM / inhibition at 1 µM / inhibition at 10 µM / inhibition at 30 µM / inhibition at 50 µM: Mus musculus, T-cell, 72 h, read-out: Proliferation inhibition rate (%)
Summary of the method: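 Proliferation inhibition (%) came from flow cytometry of CFSE dilution after 3 days' culture at 37 °C with compound (10 nM, 100 nM, 1, 10, 30, 50 μM; triplicate wells). Cells were magnetically purified T cells from C57BL/6 mouse spleens, 2×10^5 per well, stimulated with 0.5 μg/mL each anti-CD3 and anti-CD28.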

[3] = tested on: Human B Lymphocyte cell line, SU-DHL-8; test: Relative cell viability CCK-8, SU-DHL-8; format: cell-based; details: 48 hours, untreated (DMSO) = 100%; for viability at 1 µM / viability at 10 µM / viability at 30 µM / viability at 50 µM: Homo sapiens, SU-DHL-8, 48 h; for viability at 1 µM: read-out: Relative cell viability (%), SU-DHL-8, 1 μM; for viability at 10 µM: read-out: Relative cell viability (%), SU-DHL-8, 10 μM; for viability at 30 µM: read-out: Relative cell viability (%), SU-DHL-8, 30 μM; for viability at 50 µM: read-out: Relative cell viability (%), SU-DHL-8, 50 μM
Summary of the method: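 Cells grown in RPMI-1640 with 10% FBS, treated with compound at several concentrations, then given CCK-8 for 4 h at 37° C. Viability expressed as percent of DMSO-treated cells.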

[4] = tested on: Human Cervical Carcinoma cell line, HeLa; test: Relative cell viability CCK-8, HeLa; format: cell-based; details: 48 hours
Procedure: Similarly, human-derived cervical cancer cell line HeLa and renal cancer cell line ACHN, obtained from the Korean Cell Bank, were cultured in DMEM medium containing 10% FBS, 100 U/mL penicillin, and 100 μg/mL streptomycin.
(§1) Following stabilization, the cells were harvested using Trypsin-EDTA treatment, centrifuged at 1,200 rpm for 3 minutes, the supernatant was removed, and the cells were resuspended in the same medium. They were then seeded into a 96-well plate (Costar 96-well cell culture plate, Corning) at 100 μL per well, and the conditions were adjusted as indicated in Table 5.
(§2) The cells were cultured in a 5% CO2 incubator at 37° C. for 24 hours, and after stabilization of the cells, each plate was washed with 200 μL of PBS per well and treated with 50 μL of culture medium per well.
(§3) The compounds according to the present invention or the control group (DMSO) were added at concentrations of 0, 10, 30, and 50 μM in 50 μL aliquots to the plates, and the plates were cultured at 37° C. in a 5% CO2 incubator for 48 hours.
(§4) After that, 10 μL of CCK-8 was added to each well, and the plate was incubated again at 37° C. in a 5% CO2 incubator for 2 hours.
(§5) In other words, when the survival rate of untreated cells (DMSO) is set at 100%, the relative cell survival rate in each group treated with the drug at different concentrations is indicated.

[5] = tested on: Human Breast Cancer cell line, MCF-7; test: Relative cell viability CCK-8, MCF-7; format: cell-based; details: 48 hours
Procedure: (§6) Human-derived breast cancer cell line MCF-7, human-derived lung cancer cell line A549, human-derived colorectal cancer cell line HCT-116, human pancreatic cancer cell line AsPC-1, glioblastoma cell line A172, and melanoma cell line Malme-3M were obtained from the Korean Cell Bank. gastric cancer cell line SNU-719, and bladder cancer cell line T24 were cultured in RPMI-1640 medium containing 10% FBS.
as §1, §2, §3, §4, §5

[6] = tested on: Human Gastric cancer cell, SNU-719; test: Relative cell viability CCK-8, SNU-719; format: cell-based; details: 48 hours
Procedure: as §6, §1, §2, §4, §5

[7] = tested on: Human Colorectal Carcinoma cell line, HCT-116; test: Relative cell viability CCK-8, HCT-116; format: cell-based; details: Homo sapiens, HCT-116, 48 hours
Procedure: as §6, §1, §2, §4, §5

[8] = tested on: Human Pancreas Adenocarcinoma cell line, AsPC-1; test: Relative cell viability CCK-8, AsPC-1; format: cell-based; details: 48 hours
Procedure: as §6, §1, §2, §4, §5

[9] = tested on: Human Bladder cancer cell, T24; test: Relative cell viability CCK-8, T24; format: cell-based; details: Homo sapiens, 48 h
Procedure: as §6, §1, §2, §4, §5

Molecule	Number of infiltrated cells (invasion) [1]	Proliferation inhibition rate (%) ([2]; compound 10 nM)	Proliferation inhibition rate (%) ([2]; compound 100 nM)	Proliferation inhibition rate (%) ([2]; compound 1 μM)	Proliferation inhibition rate (%) ([2]; compound 10 μM)	Proliferation inhibition rate (%) ([2]; compound 30 μM)	Proliferation inhibition rate (%) ([2]; compound 50 μM)	viability at 1 µM [3] [%]	viability at 10 µM [3] [%]	viability at 30 µM [3] [%]	viability at 50 µM [3] [%]	inhibition at 0.01 µM ([2]; compound 10 nM) [%]	inhibition at 0.1 µM ([2]; compound 100 nM) [%]	inhibition at 1 µM ([2]; compound 1 μM) [%]	inhibition at 10 µM ([2]; compound 10 μM) [%]	inhibition at 30 µM ([2]; compound 30 μM) [%]	inhibition at 50 µM ([2]; compound 50 μM) [%]	viability at 1 µM [6] [%]	viability at 10 µM [6] [%]	viability at 30 µM [6] [%]	also measured
12-(4-hydroxypiperazin-1-yl)dodecyl-N-(6-aminopurazin-2-yl) carboxamide [Compound 10]	reduction in the number of infiltrated cells	100.00	100.00	100.00	100.00	100.00	100.00														
Nc1ncccc1C(=O)NCCCCCCCCCCCCN1CCc2ccccc2C1 [Compound 3, 2-Amino-N-[12-(3,4-dihydro-1H-isoquinolin-2-yl)-dodecyl]-nicotinamide]								29.1	25.7	24.7	23.5	4.99	0	0	88.3	100	100				viability at 1 µM ([4]; 1 μM): 16.4%; viability at 10 µM ([4]; 10 μM): 3.26%; viability at 30 µM ([4]; 30 μM): 1.07%; viability at 50 µM ([4]; 50 μM): 0.73%; viability at 1 µM ([5]; MCF7, 1 μM): 35.4%; viability at 10 µM ([5]; MCF7, 10 μM): 9.1%; viability at 30 µM ([5]; MCF7, 30 μM): 4.02%; viability at 50 µM ([5]; MCF7, 50 μM): 1.95%
O=C(NCCCCCCCCCCCCN1CCN2CCCC2C1)c1cccnc1 (stereo not shown) [Compound 23, N-(12-(hexahydropyrrolo[1,2-a]pyrazin-2 (1H)-yl)dodecyl) nicotinamide]	reduction in the number of infiltrated cells							16.1	15.7	9.17	1.97	-12.8	100	100	100	100	100	36.1	35.9	40.4	viability at 50 µM [6]: 35.6%; viability at 1 µM [7]: 13.1%; viability at 10 µM [7]: 14.6%; viability at 30 µM [7]: 14%; viability at 50 µM [7]: 13%; viability at 1 µM ([8]; ASPC1, 1 μM): 42.4%; viability at 10 µM ([8]; ASPC1, 10 μM): 44.5%; viability at 30 µM ([8]; ASPC1, 30 μM): 42.7%; viability at 50 µM ([8]; ASPC1, 50 μM): 42%; viability at 1 µM ([9]; 1 μM): 10%; viability at 10 µM ([9]; 10 μM): 10.1%; viability at 30 µM ([9]; 30 μM): 9.53%; viability at 50 µM ([9]; 50 μM): 9.46%
CC(C)(C)OC(=O)N[C@H]1CCN(CCCCCCCCCCCCNC(=O)c2cccnc2N)C1 [Compound 49, tert-Butyl(S)-(1-(12-(2-aminonicotinamido)dodecyl)pyrrolidin-3-yl) carbamate]	reduction in the number of infiltrated cells	−22.61	100.00	100.00	100.00	100.00	100.00														Relative cell viability (%), SU-DHL-8 ([3]; 1 μM): 8.93%; Relative cell viability (%), SU-DHL-8 ([3]; 10 μM): 8.02%; Relative cell viability (%), SU-DHL-8 ([3]; 30 μM): 7.48%; Relative cell viability (%), SU-DHL-8 ([3]; 50 μM): 4.09%
Nc1ncccc1C(=O)NCCCCCCCCCCCCN1CC(F)C1 [Compound 52, 2-Amino-N-(12-(3-fluoroazetidin-1-yl)dodecyl)nicotinamide]	reduction in the number of infiltrated cells							14.2	11.6	10.1	9.15	11.3	13.8	100	100	100	100	41.2	35.9	35.5	viability at 50 µM [6]: 35%; viability at 1 µM [7]: 33.6%; viability at 10 µM [7]: 13.3%; viability at 30 µM [7]: 12.7%; viability at 50 µM [7]: 11.8%
